The term IC50 denotes the concentration needed to halve the response being measured. A higher IC50 goes with lower potency.

T1 sequence (Q96SW2 whole entry): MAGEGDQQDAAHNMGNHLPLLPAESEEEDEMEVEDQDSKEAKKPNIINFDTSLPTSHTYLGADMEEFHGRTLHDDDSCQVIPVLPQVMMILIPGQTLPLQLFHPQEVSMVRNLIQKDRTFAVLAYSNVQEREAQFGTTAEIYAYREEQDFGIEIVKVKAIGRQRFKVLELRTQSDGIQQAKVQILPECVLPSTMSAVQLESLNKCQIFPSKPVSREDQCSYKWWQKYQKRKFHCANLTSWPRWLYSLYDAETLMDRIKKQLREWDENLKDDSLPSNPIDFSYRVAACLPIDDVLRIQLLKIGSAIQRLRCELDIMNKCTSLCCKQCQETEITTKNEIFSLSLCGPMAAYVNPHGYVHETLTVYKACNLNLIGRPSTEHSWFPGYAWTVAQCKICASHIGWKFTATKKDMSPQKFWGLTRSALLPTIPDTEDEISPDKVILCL

The assay concerns the target T1, human Cereblon WT GST-tagged protein (Homo sapiens, UniProt Q96SW2).
T1 construct: purchased CISBIO 64BDCRBNPEH
The assay can be described thus: CRBN binding, HTRF CEREBLON BINDING kit. To be noted: CRBN binding, HTRF CEREBLON BINDING kit. Here is the method: The CEREBLON BINDING kits (specification: 10,000 tests; product number: Catalog #64BDCRBNPEH; CISBIO company) was used to determine the CRBN binding ability of the compounds to be tested through a HTRF method (homogeneous time-resolved fluorescence). The specific methods are as follows: • 1. […] Then, 2.5 μL of human Cereblon WT GST-tagged protein solution was added to each well. Finally, 5 μL of the thoroughly mixed Thalidomide-Re reagent and GST Eu antibody working solution were added to each of the aforementioned wells. […] The blank control wells were sequentially added with 2.5 μL of diluent #9 (1×) solution, 2.5 μL of binding buffer, and 5 μL of thoroughly mixed Thalidomide-Re reagent and GST Eu antibody working solution. • 4. After sealing and incubating the solutions in the aforementioned wells at room temperature for 3 hours, the absorbance values at emission wavelengths of 620 nm and 665 nm were detected by the HTRF method using a Spark microplate reader (V3.1 SP1).
The corresponding CRBN binding inhibition rate was calculated using the following method:
[formula] [formula] [formula] • Note: OD 665 nmcompound is the absorbance value of each well of the compounds to be tested of the present disclosure at an emission wavelength of 665 nm. • OD 620 nmcompound is the absorbance value of each well of the compounds to be tested of the present disclosure at an emission wavelength of 620 nm. • OD 665 nmcontrol is the absorbance value of the blank control well at an emission wavelength of 665 nm. • OD 620 nmcontrol is the absorbance value of the blank control well at an emission wavelength of 620 nm. • OD 665 nmStd0 is the absorbance value of the solvent control well at an emission wavelength of 665 nm. • OD 620 nmStd0 is the absorbance value of the solvent control well at an emission wavelength of 620 nm.
The molecule `CN1CCN([C@@H]2CCCN(c3cnc(C(N)=O)c(Nc4ccc(C5CCN(Cc6cccc(N7CCC(=O)NC7=O)c6)CC5)cc4)n3)C2)C1=O` [GT-04800, (R)-3-((4-(1-(3-(2,4-dioxotetrahydropyrimidin-1(2H)-yl)benzyl)piperidin-4-yl)phenyl)amino)-5-(3-(3-methyl-2-oxoimidazolidin-1-yl)piperidin-1-yl)pyrazine-2-carboxamide] yielded an IC50 of 500 to 1000 nM. The molecule `CN1CCN([C@@H]2CCCN(c3cnc(C(N)=O)c(Nc4ccc(C5CCN(Cc6ccc(N7CCC(=O)NC7=O)c(F)c6)CC5)cc4)n3)C2)C1=O` [GT-04801, (R)-3-((4-(1-(4-(2,4-dioxotetrahydropyrimidin-1(2H)-yl)-3-fluorobenzyl)piperidin-4-yl)phenyl)amino)-5-(3-(3-methyl-2-oxoimidazolidin-1-yl)piperidin-1-yl)pyrazine-2-carboxamide] gave an IC50 below 500 nM. Molecule `CN1CCN([C@@H]2CCCN(c3cnc(C(N)=O)c(Nc4ccc(C5CCN(Cc6ccc(N7CCC(=O)NC7=O)cc6)CC5)cc4)n3)C2)C1=O` [GT-04802, (R)-3-((4-(1-(4-(2,4-dioxotetrahydropyrimidin-1(2H)-yl)benzyl)piperidin-4-yl)phenyl)amino)-5-(3-(3-methyl-2-oxoimidazolidin-1-yl)piperidin-1-yl)pyrazine-2-carboxamide] displayed an IC50 of 500 to 1000 nM.

Molecule `CN1CCN([C@@H]2CCCN(c3cnc(C(N)=O)c(Nc4ccc(C5CCN(Cc6ccc(N7CCC(=O)NC7=O)cc6F)CC5)cc4)n3)C2)C1=O` [GT-04803, (R)-3-((4-(1-(4-(2,4-dioxotetrahydropyrimidin-1(2H)-yl)-2-fluorobenzyl)piperidin-4-yl)phenyl)amino)-5-(3-(3-methyl-2-oxoimidazolidin-1-yl)piperidin-1-yl)pyrazine-2-carboxamide] had a concentration for half-maximal inhibition (IC50) of 500 to 1000 nM. Turning to `CN1CCN([C@@H]2CCCN(c3cnc(C(N)=O)c(Nc4ccc(C5CCN(Cc6cccc(NC7CCC(=O)NC7=O)c6)CC5)cc4)n3)C2)C1=O` (stereo partly drawn) [GT-04804, 3-((4-(1-(3-((2,6-dioxopiperidin-3-yl)amino)benzyl)piperidin-4-yl)phenyl)amino)-5-((R)-3-(3-methyl-2-oxoimidazolidin-1-yl)piperidin-1-yl)pyrazine-2-carboxamide], the IC50 is 1000 to 1900 nM. `COc1ccc2cn(C3CCN(Cc4ccc(C5CCC(=O)NC5=O)cc4)CC3)nc2c1NC(=O)c1cccc(C(F)(F)F)c1` (centres unmarked) [GT-04813, N-(2-(1-(4-(2,6-dioxopiperidin-3-yl)benzyl)piperidin-4-yl)-6-methoxy-2H-indazol-7-yl)-3-(trifluoromethyl)benzamide] displayed a half-maximal inhibitory concentration (IC50) of 1000 to 1900 nM.

Turning to `COc1ccc2cn(C3CCN(Cc4ccc(C5CCC(=O)NC5=O)c(F)c4)CC3)nc2c1NC(=O)c1cccc(C(F)(F)F)c1` (centres unmarked) [GT-04814, N-(2-(1-(4-(2,6-dioxopiperidin-3-yl)-3-fluorobenzyl)piperidin-4-yl)-6-methoxy-2H-indazol-7-yl)-3-(trifluoromethyl)benzamide], the IC50 fell in the range of 500 to 1000 nM.

With `Cc1ccc(-c2c(C)noc2C)cc1N(CC1CCN(Cc2cccc(N3CCC(=O)NC3=O)c2)CC1)c1ccc(C2(C#N)CC2)cc1` [GT-04842, 1-(4-((5-(3,5-dimethylisoxazol-4-yl)-2-methylphenyl)((1-(3-(2,4-dioxotetrahydropyrimidin-1(2H)-yl)benzyl)piperidin-4-yl)methyl)amino)phenyl)cyclopropane-1-carbonitrile], the IC50 lay in the range of 1000 to 1900 nM. The value for `Cc1ccc(-c2c(C)noc2C)cc1N(CC1CCN(Cc2ccc(N3CCC(=O)NC3=O)c(F)c2)CC1)c1ccc(C2(C#N)CC2)cc1` [GT-04843, 1-(4-((5-(3,5-dimethylisoxazol-4-yl)-2-methylphenyl)((1-(4-(2,4-dioxotetrahydropyrimidin-1(2H)-yl)-3-fluorobenzyl)piperidin-4-yl)methyl)amino)phenyl)cyclopropane-1-carbonitrile] was 1000 to 1900 nM; that for `Cc1ccc(-c2c(C)noc2C)cc1N(CC1CCN(Cc2ccc(N3CCC(=O)NC3=O)cc2)CC1)c1ccc(C2(C#N)CC2)cc1` [GT-04844, 1-(4-((5-(3,5-dimethylisoxazol-4-yl)-2-methylphenyl)((1-(4-(2,4-dioxotetrahydropyrimidin-1(2H)-yl)benzyl)piperidin-4-yl)methyl)amino)phenyl)cyclopropane-1-carbonitrile] was 500 to 1000 nM; that for `O=C1CCN(c2ccc(CN3CCC(n4cc(NC(=O)c5coc(-c6ccnc(NCC7CC7)c6)n5)c(C(F)F)n4)CC3)nc2)C(=O)N1` [GT-04958, 2-(2-((cyclopropylmethyl)amino)pyridin-4-yl)-N-(3-(difluoromethyl)-1-(1-((5-(2,4-dioxotetrahydropyrimidin-1(2H)-yl)pyridin-2-yl)methyl)piperidin-4-yl)-1H-pyrazol-4-yl)oxazole-4-carboxamide] was 500 to 1000 nM.

In turn, `Nc1nnc(-c2ccccc2O)cc1N1CCN(Cc2ccc(N3CCC(=O)NC3=O)cc2)CC1` [GT-04961, 1-(4-((4-(3-amino-6-(2-hydroxyphenyl)pyridazin-4-yl)piperazin-1-yl)methyl)phenyl)dihydropyrimidine-2,4(1H,3H)-dione] displayed an IC50 of 500 to 1000 nM. For `Nc1nnc(-c2ccccc2O)cc1N1CCN(Cc2cccc(N3CCC(=O)NC3=O)c2)CC1` [GT-04962, 1-(3-((4-(3-amino-6-(2-hydroxyphenyl)pyridazin-4-yl)piperazin-1-yl)methyl)phenyl)dihydropyrimidine-2,4(1H,3H)-dione] the value was 1000 to 1900 nM; for `O=C1CCN(c2cccc(CN3CCC(n4cc(NC(=O)c5coc(-c6ccnc(NCC7CC7)c6)n5)c(C(F)F)n4)CC3)c2)C(=O)N1` [GT-04965, 2-(2-((cyclopropylmethyl)amino)pyridin-4-yl)-N-(3-(difluoromethyl)-1-(1-(3-(2,4-dioxotetrahydropyrimidin-1(2H)-yl)benzyl)piperidin-4-yl)-1H-pyrazol-4-yl)oxazole-4-carboxamide], 500 to 1000 nM; for `Cc1ccc(-c2c(C)noc2C)cc1N(CC1CCN(Cc2ccc(N3CCC(=O)NC3=O)cc2F)CC1)c1ccc(C2(C#N)CC2)cc1` [GT-04973, 1-(4-((5-(3,5-dimethylisoxazol-4-yl)-2-methylphenyl)((1-(4-(2,4-dioxotetrahydropyrimidin-1(2H)-yl)-2-fluorobenzyl)piperidin-4-yl)methyl)amino)phenyl)cyclopropane-1-carbonitrile], 1000 to 1900 nM. In turn, `O=C1CCN(c2cccc(CN3CCN(Cc4ccc5c(c4)nc(NC(=O)c4cccc(C(F)(F)F)c4)n5[C@H]4CC[C@@H](CO)CC4)CC3)c2)C(=O)N1` [GT-04977, N-(5-((4-(3-(2,4-dioxotetrahydropyrimidin-1(2H)-yl)benzyl)piperazin-1-yl)methyl)-1-((1s,4s)-4-(hydroxymethyl)cyclohexyl)-1H-benzo[d]imidazol-2-yl)-3-(trifluoromethyl)benzamide] had a half-maximal inhibitory concentration (IC50) of 500 to 1000 nM.

As for `O=C1CCC(c2ccc(CN3CCN(Cc4ccc5c(c4)nc(NC(=O)c4cccc(C(F)(F)F)c4)n5[C@H]4CC[C@@H](CO)CC4)CC3)cc2)C(=O)N1` (some centres unmarked) [GT-04978, N-(5-((4-(4-(2,6-dioxopiperidin-3-yl)benzyl)piperazin-1-yl)methyl)-1-((1s,4s)-4-(hydroxymethyl)cyclohexyl)-1H-benzo[d]imidazol-2-yl)-3-(trifluoromethyl)benzamide], the IC50 lay in the range of 1000 to 1900 nM.

For the origin of these results see patent US20260274829A1, “NEW E3 UBIQUITIN LIGASE LIGAND, PROTEIN DEGRADATION AGENT AND USE THEREOF” (GLUETACS THERAPEUTICS (SHANGHAI) CO., LTD., priority 2023, published 2026).
